Measured values published in patent EP0619313A1, “LITHIUM SALT OF 2-O-ALK[…]” (TSUMURA & CO., priority 1992, dated 1994).

Columns and labels:
[1] = tested on: myocardial infarction focus; assay: Inhibition of development of myocardial infarction focus after coronary obstruction-reperfusion in rats; format: in vivo, Male Wistar-rats; conditions: 1 mg/kg intravenous
Protocol: Male Wistar-rats (11 to 12 weeks old) were used and anethesized with pentobarbital-Na, and medianus thoracotomy was carried out under artificial respiration. After incising the pericardium membrane, the heart was exposed. The base of the left coronary artery together with cardiac muscle was threaded with a sutural needle and thread (marketed by Lederle (Japan), Ltd., 7-0 silk), which were passed through a polyethylene tube, and the thread was pulled. Thus, coronary artery was obstructed. One hour later, the thread was loosed to make blood to flow again. Thirty to sixty minutes after reperfusion, the thorax was closed and the rat was kept under arousal.
After 24 hours, the rats were anesthetized again, and the heart was removed quickly and soaked in ice-cooled physiological saline. The coronary artery was obstructed again to know a dangerous region. Evans' Blue (1%) was perfused through a polyethylene tube inserted into the aorta retrogradely, and normal region was separated from the dangerous region. Thereafter, the left ventricle was divided into 6 parts parallel to the vertical axis and dyed with triphenyl tetrazolium chloride (TTC)(1%) at 37°C for 10 minutes except necrotic cells. The infarction focus was weighed. The test drug (2-O-octadecylascorbic acid obtained in Example 1) was dissolved in physiological saline, and administered intravenously 30 minutes after the coronary obstruction.

[2] = tested on: Jcl:Wistar rats; assay: Toxicity after oral or intravenous administration, rats; format: in vivo
Protocol: (§1) The test compound was administered orally or intravenously to Jcl:ICR mice and Jcl:Wistar rats (two mice or rats (male and female) per group). 2-O-octadecylascorbic acid lithium obtained in Example 1 as the test compound was suspended in 0.5% methyl cellulose in the case of oral administration and dissolved in physiological saline in the case of intravenous administration.

[3] = as above; format: in vivo; conditions: rat, in vivo, read-out: LD₅₀
Protocol: as §1

[4] = Water-solubility; conditions: at 28°C
[5] = molecular target: T1, GST-cdc25Hu2 fused protein (Homo sapiens, UniProt P30305); assay: GST-cdc25Hu2 (protein phosphatase) inhibitory activity; format: biochemical; conditions: 37°C for 60 minutes, read-out: cdc25 activity inhibited
T1 sequence (P30305 1-580): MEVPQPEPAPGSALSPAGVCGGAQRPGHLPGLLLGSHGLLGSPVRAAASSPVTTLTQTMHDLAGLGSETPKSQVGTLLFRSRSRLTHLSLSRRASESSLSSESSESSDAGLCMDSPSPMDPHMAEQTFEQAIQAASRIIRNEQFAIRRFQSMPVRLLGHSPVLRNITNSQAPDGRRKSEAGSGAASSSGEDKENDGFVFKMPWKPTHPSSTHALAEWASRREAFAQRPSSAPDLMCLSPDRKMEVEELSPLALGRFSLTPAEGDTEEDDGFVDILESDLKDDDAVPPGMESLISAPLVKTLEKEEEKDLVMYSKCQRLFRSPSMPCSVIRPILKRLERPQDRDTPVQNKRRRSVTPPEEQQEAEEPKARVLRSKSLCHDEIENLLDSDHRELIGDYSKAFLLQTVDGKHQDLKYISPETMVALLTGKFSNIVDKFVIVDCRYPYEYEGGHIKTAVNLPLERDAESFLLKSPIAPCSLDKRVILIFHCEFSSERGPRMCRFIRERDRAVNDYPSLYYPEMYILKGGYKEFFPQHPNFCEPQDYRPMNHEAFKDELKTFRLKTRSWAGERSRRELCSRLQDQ
Protocol: A test compound (2-O-octadecylascorbic acid lithium obtained in Example 1)(80 µM) was added to a reaction mixture containing GST-cdc25Hu2 fused protein (60 µg/ml), p-nitrophenylphosphate (manufactured by Wako Pure Chemical Industries, Ltd.)(10 mM), bovine serum albumin (manufactured by Sigma, U.S.A.)(100 µg/ml), DDT (dithiothreitol) (manufactured by Wako Pure Chemical Industries, Ltd.)(10 mM) and HEPES (2-hydroxyethylpiperazine-N'-2-ethane sulfate)(25 mM, pH 8.0). The mixture was subjected to reaction at 37°C for 60 minutes. Then, absorbance at 405 nm was measured, and the inhibitory activity was evaluated based on the decrease of the absorbance.

[6] = molecular target: T2, Phospholipase A₂ derived from pig pancreas (Sus scrofa, UniProt P00592); assay: Inhibitory activity against phospholipase A₂; format: biochemical; conditions: pH 9, read-out: enzymatic activity of the phospholipase inhibited
T2 construct: Phospholipase A₂ derived from pig pancreas; from tissue; host or cells: pig pancreas
T2 sequence (P00592 23-146): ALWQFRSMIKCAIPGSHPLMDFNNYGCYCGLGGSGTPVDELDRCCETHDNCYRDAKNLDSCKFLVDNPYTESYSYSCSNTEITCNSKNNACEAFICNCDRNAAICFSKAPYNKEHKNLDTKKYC
Protocol: Phospholipase A₂ derived from pig pancreas was reacted for 10 minutes in 0.1M glycine-NaOH buffer (pH 9) containing a test compound (2-O-octadecylascorbic acid lithium obtained in Example 1)(300 µM) and labeled phosphatidylcholine. Thereafter, Ca⁺⁺ (2.5 mM) was added and the reaction was continued for additional 5 minutes. The reaction was stopped by adding 0.2M EDTA solution to the reaction mixture. The mixture was extracted with acidic […]. Scintillation of the […] layer was measured.

[7] = tested on: rabbit defibrinated blood; assay: Hemolysis test with rabbit defibrinated blood; format: cell-based; conditions: not more than 1 µg/ml in physiological saline; 37°C for 1 hour; macroscopic observation of the supernatant
Protocol: A physiological saline solution containing 2-O-octadecylascorbic acid lithium obtained in Example 1 below was warmed to 37°C, put in a Spitz roll, provided with rabbit defibrinated blood (Note)(0.1 ml) previously warmed to 37°C, shaken for mixing gently and warmed at 37°C for 1 hour. Then, this liquid was subjected to centrifugation. Macroscopic observation was made as to whether the supernatant had hemolysis.
Blood (about 20 ml) was drawn from rabbits, put in a flask containing about twenty glass beads of diameter of 8 mm, shaken for mixing gently for about 5 minutes and filtered through gauze. This preparation was carried out before use.

[8] = Toxicity after oral or intravenous administration, mice; format: in vivo; conditions: mouse, in vivo, read-out: LD₅₀
Protocol: as §1

[9] = tested on: Jcl:ICR mice; assay: as above; format: in vivo
Protocol: as §1

[10] = tested on: lipid peroxidation enzyme; assay: Inhibitory activity against lipid peroxidation enzyme (rat liver microsome, carbon tetrachloride, thiobarbituric acid); format: biochemical; conditions: 300 µM; carbon tetrachloride 20 mM; 37°C for 12 minutes
Protocol: Rat liver microsome (2 mg), which is a NADPH generating system, the test compound (2-O-octadecylascorbic acid lithium obtained Example 1)(300 µM) and carbon tetrachloride (20 mM) were reacted at 37°C for 12 minutes. A mixed solution of thiobarbituric acid and trichloroacetic acid was added to the solution. Absorbance was measured at 535 nm.

[11] = intravenous administration, dissolved in physiological saline
[12] = oral administration, suspended in 0.5% methyl cellulose

**Q.** For `CCCCCCCCCCCCCCCCCCOC1=C(O)[C@@H]([C@@H](O)CO)OC1=O.[Li]` [2-O-octadecylascorbic acid lithium], which “infarction focus per the dangerous region (IS/AR)” value ([1]; 30 minutes after the coronary obstruction, N=7, control 60.0±1.8%) is on record?
**A.** 40.5±4.6%

**Q.** And the “inhibition in comparison with the control group” value ([1]; P<0.001)?
**A.** 32.7%

**Q.** What about the “dangerous region per left ventricle (AR/LV)” value ([1]; compared with the physiological saline group) of the same compound?
**A.** no significant difference

**Q.** What about the “Abnormal findings in the autopsy of the survivors” value [2] of the same compound?
**A.** not observed

**Q.** What about the “autopsy of the dead animals” value ([2]; intravenous administration) of the same compound?
**A.** Pulmonary congestion was observed

**Q.** And the LD50 [3, 11]?
**A.** 25 to 50 mg/kg

**Q.** And the LD50 [3, 12]?
**A.** ≥ 2000 mg/kg

**Q.** And the water-solubility [4]?
**A.** 1 g/83 ml (water)

**Q.** And the inhibition at 80 µM [5]?
**A.** 93.6%

**Q.** And the inhibition at 300 µM [6]?
**A.** 59%

**Q.** What about the hemolysis [7] of the same compound?
**A.** not observed

**Q.** What about the LD50 [8, 11] of the same compound?
**A.** 25 to 50 mg/kg

**Q.** And the LD50 [8, 12]?
**A.** ≥ 2000 mg/kg

**Q.** What about the “Abnormal findings in the autopsy of the survivors” value [9] of the same compound?
**A.** not observed

**Q.** What about the “autopsy of the dead animals” value ([9]; intravenous administration) of the same compound?
**A.** Pulmonary congestion was observed

**Q.** What about the “inhibitory ratio of the enzymatic activity” value [10] of the same compound?
**A.** 75%
